Results from patent US8791145B2, “Agricultural formulations with acyl morpholines and polar aprotic co-solvents” (Akzo Nobel Chemicals International B.V., priority 2010, dated 2014).

Key:
[1] = Literature value from Adjuvant Newsletter; cited from earlier work
[2] = Dilution of Imidacloprid formulation in water, ocular inspection; format: physicochemical; set-up: key: +: easily dissolved; −: permanent crystals; NS: Non soluble; settings: 200 g/l diluted to 0.4 g/l
From the text: Formulations containing 200 g/l of Imidacloprid was formulated together with 40 g/l of an alcohol ethoxylate (2-propylheptanol ethoxylated with 8 moles of EO per mole of alcohol) and diluted to a final volume of one liter with each one of the solvents N-formyl morpholine, N-acetyl morpholine and N-propionyl morpholine along with a co-solvent. The co-solvents used were dimethylsulfoxide (DMSO), propylene carbonate (PC), dimethylformamide (DMF) and ethyl lactate (EL). Ethyl lactate is a protic solvent and is included in the experiment for comparison. The amount of each co-solvent, in % by weight of the total weight of morpholine and co-solvent, is seen in table 2. The solutions was diluted in water to an end concentration of imidacloprid of 0.4 g/l and the dilution was judged by ocular inspection with the naked eye, and in the table below, the following is used: • +: easily dissolved, • −: permanent crystals. • NS: Non soluble

[3] = Solubility in acyl morpholines; format: physicochemical; settings: 23° C.
Procedure: Various agriculturally active ingredients were dissolved in N-formyl morpholine, N-acetyl morpholine and N-propionyl morpholine in order to evaluate the solubility of the active ingredients in the solvents. This was done by adding the active ingredient to a beaker and thereafter adding the solvent until a clear solution was obtained. The solutions were continually stirred at a temperature of 23° C. during the experiments. When everything had been dissolved, the beakers were left without stirring for 24 h to see if the solution was stable (i.e. no crystallization).

Structure (SMILES): O=[N+]([O-])NC1=NCCN1Cc1ccc(Cl)nc1 [Imidacloprid]
- Dissolution of active ingredient into Lactic acid dimethyl amide [1]: 14 grams of active ingredient in 100 g solvent
- Crystallization upon dilution in water ([2]; NAM, 0% DMF): −
- Crystallization upon dilution in water ([2]; NAM, 0% DMSO): −
- Crystallization upon dilution in water ([2]; NAM, 0% EL): −
- Crystallization upon dilution in water ([2]; NAM, 0% PC): −
- Crystallization upon dilution in water ([2]; NAM, 5% DMF): −
- Crystallization upon dilution in water ([2]; NAM, 5% DMSO): −
- Crystallization upon dilution in water ([2]; NAM, 5% EL): −
- Crystallization upon dilution in water ([2]; NAM, 5% PC): −
- Crystallization upon dilution in water ([2]; NAM, 10% DMF): −
- Crystallization upon dilution in water ([2]; NAM, 10% DMSO): −
- Crystallization upon dilution in water ([2]; NAM, 10% EL): NS
- Crystallization upon dilution in water ([2]; NAM, 10% PC): −
- Crystallization upon dilution in water ([2]; NAM, 15% DMF): −
- Crystallization upon dilution in water ([2]; NAM, 15% DMSO): +
- Crystallization upon dilution in water ([2]; NAM, 15% EL): NS
- Crystallization upon dilution in water ([2]; NAM, 15% PC): −
- Crystallization upon dilution in water ([2]; NAM, 20% DMF): +
- Crystallization upon dilution in water ([2]; NAM, 20% DMSO): +
- Crystallization upon dilution in water ([2]; NAM, 20% EL): NS
- Crystallization upon dilution in water ([2]; NAM, 20% PC): NS
- Crystallization upon dilution in water ([2]; NAM, 25% DMF): +
- Crystallization upon dilution in water ([2]; NAM, 25% DMSO): +
- Crystallization upon dilution in water ([2]; NAM, 25% EL): NS
- Crystallization upon dilution in water ([2]; NAM, 25% PC): NS
- Crystallization upon dilution in water ([2]; NAM, 30% DMF): +
- Crystallization upon dilution in water ([2]; NAM, 30% DMSO): +
- Crystallization upon dilution in water ([2]; NAM, 30% EL): NS
- Crystallization upon dilution in water ([2]; NAM, 30% PC): NS
- Crystallization upon dilution in water ([2]; NAM, 50% DMF): +
- Crystallization upon dilution in water ([2]; NAM, 50% DMSO): +
- Crystallization upon dilution in water ([2]; NAM, 50% EL): NS
- Crystallization upon dilution in water ([2]; NAM, 50% PC): NS
- Crystallization upon dilution in water ([2]; NAM, 95% DMF): +
- Crystallization upon dilution in water ([2]; NAM, 95% DMSO): +
- Crystallization upon dilution in water ([2]; NAM, 95% EL): NS
- Crystallization upon dilution in water ([2]; NAM, 95% PC): NS
- Crystallization upon dilution in water ([2]; NFM, 0% DMF): −
- Crystallization upon dilution in water ([2]; NFM, 0% DMSO): −
- Crystallization upon dilution in water ([2]; NFM, 0% EL): −
- Crystallization upon dilution in water ([2]; NFM, 0% PC): −
- Crystallization upon dilution in water ([2]; NFM, 5% DMF): −
- Crystallization upon dilution in water ([2]; NFM, 5% DMSO): −
- Crystallization upon dilution in water ([2]; NFM, 5% EL): −
- Crystallization upon dilution in water ([2]; NFM, 5% PC): −
- Crystallization upon dilution in water ([2]; NFM, 10% DMF): −
- Crystallization upon dilution in water ([2]; NFM, 10% DMSO): +
- Crystallization upon dilution in water ([2]; NFM, 10% EL): NS
- Crystallization upon dilution in water ([2]; NFM, 10% PC): −
- Crystallization upon dilution in water ([2]; NFM, 15% DMF): +
- Crystallization upon dilution in water ([2]; NFM, 15% DMSO): +
- Crystallization upon dilution in water ([2]; NFM, 15% EL): NS
- Crystallization upon dilution in water ([2]; NFM, 15% PC): +
- Crystallization upon dilution in water ([2]; NFM, 20% DMF): +
- Crystallization upon dilution in water ([2]; NFM, 20% DMSO): +
- Crystallization upon dilution in water ([2]; NFM, 20% EL): NS
- Crystallization upon dilution in water ([2]; NFM, 20% PC): +
- Crystallization upon dilution in water ([2]; NFM, 25% DMF): +
- Crystallization upon dilution in water ([2]; NFM, 25% DMSO): +
- Crystallization upon dilution in water ([2]; NFM, 25% EL): NS
- Crystallization upon dilution in water ([2]; NFM, 25% PC): +
- Crystallization upon dilution in water ([2]; NFM, 30% DMF): +
- Crystallization upon dilution in water ([2]; NFM, 30% DMSO): +
- Crystallization upon dilution in water ([2]; NFM, 30% EL): NS
- Crystallization upon dilution in water ([2]; NFM, 30% PC): NS
- Crystallization upon dilution in water ([2]; NFM, 50% DMF): +
- Crystallization upon dilution in water ([2]; NFM, 50% DMSO): +
- Crystallization upon dilution in water ([2]; NFM, 50% EL): NS
- Crystallization upon dilution in water ([2]; NFM, 50% PC): NS
- Crystallization upon dilution in water ([2]; NFM, 95% DMF): +
- Crystallization upon dilution in water ([2]; NFM, 95% DMSO): +
- Crystallization upon dilution in water ([2]; NFM, 95% EL): NS
- Crystallization upon dilution in water ([2]; NFM, 95% PC): NS
- Crystallization upon dilution in water ([2]; NPM, 0% DMF): −
- Crystallization upon dilution in water ([2]; NPM, 0% DMSO): −
- Crystallization upon dilution in water ([2]; NPM, 0% PC): −
- Crystallization upon dilution in water ([2]; NPM, 5% DMF): NS
- Crystallization upon dilution in water ([2]; NPM, 5% DMSO): NS
- Crystallization upon dilution in water ([2]; NPM, 5% PC): NS
- Crystallization upon dilution in water ([2]; NPM, 10% DMF): NS
- Crystallization upon dilution in water ([2]; NPM, 10% DMSO): NS
- Crystallization upon dilution in water ([2]; NPM, 10% PC): NS
- Crystallization upon dilution in water ([2]; NPM, 15% DMF): NS
- Crystallization upon dilution in water ([2]; NPM, 15% DMSO): NS
- Crystallization upon dilution in water ([2]; NPM, 15% PC): NS
- Crystallization upon dilution in water ([2]; NPM, 20% DMF): NS
- Crystallization upon dilution in water ([2]; NPM, 20% DMSO): NS
- Crystallization upon dilution in water ([2]; NPM, 20% PC): NS
- Crystallization upon dilution in water ([2]; NPM, 25% DMF): NS
- Crystallization upon dilution in water ([2]; NPM, 25% DMSO): −
- Crystallization upon dilution in water ([2]; NPM, 25% PC): NS
- Crystallization upon dilution in water ([2]; NPM, 30% DMF): −
- Crystallization upon dilution in water ([2]; NPM, 30% DMSO): −
- Crystallization upon dilution in water ([2]; NPM, 30% PC): NS
- Crystallization upon dilution in water ([2]; NPM, 50% DMF): +
- Crystallization upon dilution in water ([2]; NPM, 50% DMSO): +
- Crystallization upon dilution in water ([2]; NPM, 50% PC): NS
- Crystallization upon dilution in water ([2]; NPM, 95% DMF): +
- Crystallization upon dilution in water ([2]; NPM, 95% DMSO): +
- Crystallization upon dilution in water ([2]; NPM, 95% EL): NS
- Crystallization upon dilution in water ([2]; NPM, 95% PC): NS
- Dissolution of active ingredient into N-acetyl morpholine (NAM) ([3]; NAM): 26 grams of active ingredient in 100 g solvent
- Dissolution of active ingredient into N-formyl morpholine (NFM) ([3]; NFM): 30 grams of active ingredient in 100 g solvent
- Dissolution of active ingredient into N-propionyl morpholine (NPM) ([3]; NPM): 19 grams of active ingredient in 100 g solvent
